Assay results as given in EPA's ToxRefDB 2.

Legend:
[1] = test system: rat; settings: Carcinogenicity, fischer, Oral, Feed, dose end: 78 week, group: systemic
[2] = test system: mouse; settings: Carcinogenicity, b6c3f1, Oral, Feed, dose end: 58 week, group: systemic
[3] = test system: rat; settings: Subchronic oral toxicity in rodents, sprague dawley, Feed, dose end: 90 day
[4] = test system: rat; settings: Combined chronic toxicity/carcinogenicity; sprague dawley; Oral; Feed; dose end: 104 week; group: systemic; systemic / in life observation / body weight / body weight gain + systemic / pathology microscopic / blood vessel / aneurysm + systemic / …
[5] = test system: rat; settings: Prenatal developmental toxicity study, wistar, Oral, Gavage/Intubation, dose end: 16 GD
[6] = test system: mouse; settings: Subchronic oral toxicity in rodents, cd1, Feed, dose end: 13 week, group: systemic, systemic / hematology / hemoglobin (hgb) / hemoglobin (hgb) + systemic / hematology / mean corpuscular hemoglobin concentration (mchc) / …
[7] = test system: mouse; settings: Combined chronic toxicity/carcinogenicity, other, Oral, Feed, dose end: 24 month, group: systemic
[8] = test system: dog; settings: Chronic toxicity, beagle, Oral, Feed, dose end: 54 week, group: systemic
[9] = test system: rat; settings: Carcinogenicity; other; Oral; Feed; dose end: 82 week; group: systemic; systemic / in life observation / clinical signs / fur (altered appearance) + systemic / in life observation / clinical signs / hunched …
[10] = test system: mouse; settings: Carcinogenicity, other, Oral, Feed, dose end: 24 month, group: systemic
[11] = test system: rat; settings: Combined chronic toxicity/carcinogenicity, sprague dawley, Oral, Feed, dose end: 24 month, group: systemic
[12] = systemic / pathology microscopic / liver / neoplastic nodule
[13] = systemic / pathology microscopic / liver / hyperplasia
[14] = systemic / pathology microscopic / liver / hyperplasia + systemic / pathology microscopic / liver / adenoma + systemic / pathology …
[15] = group: cholinesterase, cholinesterase / cholinesterase / cholinesterase / plasma cholinesterase (che)
[16] = group: systemic, systemic / hematology / mean corpuscular hemoglobin concentration (mchc) / mean corpuscular hemoglobin concentration (mchc) + systemic / …
[17] = group: systemic, systemic / pathology microscopic / kidney / pigmentation
[18] = group: developmental, developmental / developmental malformation / bone / fragmented + systemic / in life observation / clinical signs / reduced body size
[19] = group: maternal, systemic / in life observation / body weight / body weight gain + systemic / in life observation / clinical signs / convulsions + systemic…
[20] = systemic / in life observation / mortality / mortality
[21] = systemic / in life observation / mortality / mortality + systemic / in life observation / body weight / body weight gain
[22] = systemic / in life observation / clinical signs / [other] + systemic / in life observation / body weight / body weight + systemic / in life …
[23] = systemic / in life observation / clinical signs / [other] + systemic / in life observation / body weight / body weight gain + systemic / in …
[24] = systemic / pathology gross / urinary bladder / thickened
[25] = systemic / in life observation / body weight / body weight gain + systemic / pathology gross / kidney / enlarged + systemic / pathology …

O=Nc1ccc(Nc2ccccc2)cc1 [4-Nitrosodiphenylamine]
LOAEL ([1]; systemic / in life observation / body weight / body weight): 250 mg/kg/day
NOAEL ([1]; systemic / in life observation / body weight / body weight + systemic / pathology microscopic / liver / neoplastic nodule + systemic / …): 125 mg/kg/day
LEL [1, 12]: 125 mg/kg/day
NEL [1, 12]: < 125 mg/kg/day
LOAEL [2, 13]: 638 mg/kg/day
NOAEL [2, 13]: < 638 mg/kg/day
LEL [2, 14]: 638 mg/kg/day
NEL [2, 14]: < 638 mg/kg/day

O=S1OCC2C(CO1)C1(Cl)C(Cl)=C(Cl)C2(Cl)C1(Cl)Cl (configuration not stated) [Endosulfan]
LEL [3, 15]: 18 mg/kg/day
LOAEL [3, 15]: > 18 mg/kg/day
NEL [3, 15]: 3 mg/kg/day
NOAEL [3, 15]: ≥ 18 mg/kg/day
LOAEL [3, 16]: 1.5 mg/kg/day
NOAEL [3, 16]: 0.5 mg/kg/day
LEL [3, 17]: 0.5 mg/kg/day
NEL [3, 17]: < 0.5 mg/kg/day
LEL [4]: 2.9 mg/kg/day
LOAEL [4]: 2.9 mg/kg/day
NEL [4]: 0.6 mg/kg/day
NOAEL [4]: 0.6 mg/kg/day
LEL [5, 18]: 6 mg/kg/day
LOAEL [5, 18]: 6 mg/kg/day
NEL [5, 18]: 2 mg/kg/day
NOAEL [5, 18]: 2 mg/kg/day
LEL [5, 19]: 6 mg/kg/day
LOAEL [5, 19]: 6 mg/kg/day
NEL [5, 19]: 2 mg/kg/day
NOAEL [5, 19]: 2 mg/kg/day
LEL [6]: 0.27 mg/kg/day
LOAEL [6]: 0.27 mg/kg/day
NEL [6]: < 0.27 mg/kg/day
NOAEL [6]: < 0.27 mg/kg/day
NEL [7, 20]: 0.9 mg/kg/day
LEL [7, 21]: 2.7 mg/kg/day
LOAEL [7, 21]: > 2.7 mg/kg/day
NOAEL [7, 21]: ≥ 2.7 mg/kg/day
NEL [8, 22]: 0.25 mg/kg/day
NOAEL [8, 22]: 0.25 mg/kg/day
LEL [8, 23]: 0.75 mg/kg/day
LOAEL [8, 23]: 0.75 mg/kg/day
LEL [9]: 11.2 mg/kg/day
LOAEL [9]: > 22.2 mg/kg/day
NEL [9]: < 11.2 mg/kg/day
NOAEL [9]: ≥ 22.2 mg/kg/day
LOAEL [10, 20]: 2.6 mg/kg/day
NOAEL ([10]; systemic / in life observation / mortality / mortality + systemic / pathology gross / urinary bladder / thickened): 0.9 mg/kg/day
LEL [10, 24]: 0.3 mg/kg/day
NEL [10, 24]: < 0.3 mg/kg/day
NEL ([11]; systemic / in life observation / body weight / body weight gain + systemic / pathology gross / kidney / enlarged): 0.75 mg/kg/day
LEL [11, 25]: 3.75 mg/kg/day
LOAEL [11, 25]: > 3.75 mg/kg/day
NOAEL [11, 25]: ≥ 3.75 mg/kg/day
